Measured values taken from patent US9758480B2, “1-(cycloalkyl-carbonyl)proline derivative” (SUMITOMO DAINIPPON PHARMA CO., LTD., priority 2012, dated 2017).
Where a name gives a salt, the structure may show the parent alone.

Key:
[1] = test system: rabbit model with venous thrombus; test: Rabbit in vivo antithrombotic action evaluation test (venous thrombus model), thrombus weight; details: i.v.
Description: A rabbit model with venous thrombus was produced by modifying the report of Wienen et al. (Wienen W. et al., J. Thromb. Haemost. 5:1237-1242 (2007)). A male rabbit (JW, 2-4 kg) was narcotized by inhalation of isoflurane (ISOFLU®, manufactured by DS Pharma Animal Health) (inductive anesthesia: 4%, continuous anesthesia: 1.5% to 2.5%). For intravenous administration of a test agent and blood collection, catheters were inserted into the left femoral vein and the left femoral artery. The left external jugular vein was exposed (2 cm) from a branch of the facial vein, the microvascular branch was then ligated, and a catheter was then inserted into the posterior facial vein. The external jugular vein (2 cm) exposed from each of an anterior facial vein branch and a facial vein branch was ligated with an artery clamp, and blood was then removed from a catheter left in the posterior facial vein. Blood in the blood vessel was washed with a normal saline, and 0.5% polidocanol (manufactured by Sigma) was injected into the blood vessel. It was then left for 5 minutes, so that the occurrence of a disorder in vascular endothelium was provoked. Thereafter, 0.5% polidocanol was removed, the inside of the blood vessel was then washed with a normal saline, and the artery clamp was then removed. The external jugular vein (2 cm) exposed from the facial vein branch, together with an injection needle 21G (manufactured by Terumo), was ligated with a silk thread, so that the inner diameter of the blood vessel was reduced to 0.8 mm. Twenty-five minutes after recirculation of the blood flow, the external jugular vein (2 cm) exposed from the facial vein branch was excised, and the wet weight and dry weight of a thrombus formed in the blood vessel were measured. A test agent or a vehicle was administered to the rabbit 2 minutes before recirculation of the blood flow.

[2] = test system: endogenous coagulation pathway; test: Activated partial thromboplastin time (aPTT) of blood sample in rabbit antithrombotic test; format: in vivo; details: i.v.
Method: In order to measure the activated partial thromboplastin time (aPTT) of the blood sample, which was to be used as an indicator of an endogenous coagulation pathway, 2 minutes after the administration of the test agent or the vehicle, blood was collected, and plasma was then prepared using 3.2% sodium citrate. The prepared plasma was incubated at 37° C. for 7 minutes, and an STA reagent Cephascreen (used for aPTT measurement; manufactured by Roche Diagnostics) was added in an equal amount to the resulting plasma, and the obtained mixture was further incubated for 3 minutes. Thereafter, STA calcium chloride (manufactured by Roche Diagnostics) was added in an equal amount to the resultant, and the time required until coagulation was then measured.

[3] = target: human FXIa (Homo sapiens (Human), UniProt P03951); test: In vitro activated factor XI (FXIa) inhibition test; format: biochemical; details: 0.35 μg/mL human FXIa, substrate S-2366 300 μmol/L, 37° C., 10 minutes, OD 405 nm; read-out: FXIa inhibitory activity IC50
Chain of human FXIa (P03951 388-625): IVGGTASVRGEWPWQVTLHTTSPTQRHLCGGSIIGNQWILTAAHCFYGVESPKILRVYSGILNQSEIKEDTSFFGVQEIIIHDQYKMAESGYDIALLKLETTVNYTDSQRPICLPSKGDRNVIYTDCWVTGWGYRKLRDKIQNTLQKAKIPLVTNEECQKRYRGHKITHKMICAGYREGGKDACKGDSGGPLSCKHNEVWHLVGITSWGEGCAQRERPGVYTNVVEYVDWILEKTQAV
Chain of human FXIa (P03951 19-387 partner): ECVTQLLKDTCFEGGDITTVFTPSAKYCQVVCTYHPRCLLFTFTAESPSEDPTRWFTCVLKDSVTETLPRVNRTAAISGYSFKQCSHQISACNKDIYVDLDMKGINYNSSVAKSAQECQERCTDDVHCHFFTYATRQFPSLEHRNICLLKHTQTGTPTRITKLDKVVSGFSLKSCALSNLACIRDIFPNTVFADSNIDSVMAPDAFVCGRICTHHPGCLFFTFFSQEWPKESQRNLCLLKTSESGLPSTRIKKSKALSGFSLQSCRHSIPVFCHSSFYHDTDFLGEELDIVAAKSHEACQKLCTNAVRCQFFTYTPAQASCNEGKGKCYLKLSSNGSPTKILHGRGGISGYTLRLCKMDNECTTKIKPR
Method: To the substrate, S-2366 (pyroGlu-Pro-Arg-pNA.HCl) was added to a final concentration of 300 μmol/L. After the reaction had progressed, the absorbance at OD 405 nm was measured.

[4] = Ester metabolism stabilization test: human liver stabilization test; format: in vitro ADME; details: human liver S9, NADPH, 37° C., 30 minutes
Method: A reaction solution prepared by mixing 5 μL of human liver S9 (manufactured by Xenotech, 20 mg/mL), 20 μL of 500 mmol/L Kpi (pH7.4), 40 μL of 5 mmol/L NADPH (manufactured by Oriental Yeast Co., Ltd.) aqueous solution, and 133 μL of ion exchange water was added to 2 μL of a DMSO solution containing 100 μmol/L test substance, and the thus obtained mixture was then incubated at 37° C. for 30 minutes. After completion of the incubation, 600 μL of acetonitrile was added to the reaction solution, so that the metabolic reaction was terminated. The residual percentage of the test substance was measured using LC (LC-20A manufactured by Shimadzu Corporation) and -MS (API4000 manufactured by AB Sciex). • (2) Stabilization in Human Plasma Test

[5] = Ester metabolism stabilization test: stabilization in human plasma test; format: in vitro ADME; details: 37° C., 30 minutes
Method: 198 μL of human plasma (manufactured by Cosmo Bio) was added to 2 μL of a DMSO solution containing 100 μmol/L test substance, and the obtained mixture was then incubated at 37° C. for 30 minutes. After completion of the incubation, 600 μL of acetonitrile was added to the reaction solution, so that the metabolic reaction was terminated. The residual percentage of the test substance was measured using LC (LC-20A manufactured by Shimadzu Corporation) and -MS (API4000 manufactured by AB Sciex).

SMILES	IC50 [3]	Residual percentage (%) Human liver S9 [4]	further results
N[C@H](CF)[C@H]1CC[C@H](C(=O)N2CCC(C3CCCCC3)[C@H]2C(=O)Nc2ccc3oc(C(=O)O)cc3c2)CC1 (single isomer, unassigned) [Example 53]			Thrombus (% inhibition) ([1]; dose 0.1 mg/kg): 25 % inhibition; Thrombus (% inhibition) ([1]; dose 0.3 mg/kg): 56 % inhibition; Thrombus (% inhibition) ([1]; dose 1.0 mg/kg): 79 % inhibition; Thrombus (% inhibition) ([1]; dose 3.0 mg/kg): 80 % inhibition; aPTT (% vehicle) ([2]; dose 0.1 mg/kg): 103 % vehicle; aPTT (% vehicle) ([2]; dose 0.3 mg/kg): 117 % vehicle; aPTT (% vehicle) ([2]; dose 1.0 mg/kg): 140 % vehicle; aPTT (% vehicle) ([2]; dose 3.0 mg/kg): 166 % vehicle
CN(C(=O)C1C(c2ccccc2)CCN1C(=O)[C@H]1CC[C@H](CN)CC1)c1ccc2[nH]c(C(=O)O)cc2c1 (stereo partly drawn) [Example 5, 5-{cis-1-[trans-4-(Aminomethyl)cyclohexanecarbonyl]-N-methyl-3-phenylpyrrolidine-2-carboxamide}-1H-indole-2-carboxylic acid trifluoroacetate]	125 nM		
NC[C@H]1CC[C@H](C(=O)N2CCC(c3ccccc3)[C@H]2C(=O)Nc2ccc3[nH]c(C(=O)O)cc3c2)CC1 (stereo partly shown) [Example 23]	9 nM		
NC(CF)[C@H]1CC[C@H](C(=O)N2CC[C@@H](c3ccc(F)cc3)[C@H]2C(=O)Nc2ccc3[nH]c(C(=O)O)cc3c2)CC1 (stereo partly shown) [Example 38]	30 nM		
COCCCOC(=O)c1cc2cc(NC(=O)[C@@H]3[C@H](C4CCCCC4)CCN3C(=O)[C@H]3CC[C@H]([C@H](N)CF)CC3)ccc2o1 [Example 82]		5.8%	
N[C@H](CF)[C@H]1CC[C@H](C(=O)N2CC[C@@H](C3CCCCC3)[C@H]2C(=O)Nc2ccc3[nH]c(C(=O)O)cc3c2)CC1 [Example 99]	6 nM		
Cc1c(C(=O)O)[nH]c2ccc(NC(=O)[C@@H]3[C@H](C4CCCCC4)CCN3C(=O)[C@H]3CC[C@H]([C@H](N)CF)CC3)cc12 [Example 113]	145 nM		
CC(OC(=O)OC1CCCCC1)OC(=O)c1cc2cc(NC(=O)[C@@H]3[C@@H](c4ccccc4)CCN3C(=O)[C@H]3CC[C@H]([C@H](N)CF)CC3)ccc2[nH]1 (stereo partly shown) [Example 120]		4.9%	
CCC(=O)OC(OC(=O)c1cc2cc(NC(=O)[C@@H]3[C@@H](c4ccccc4)CCN3C(=O)[C@H]3CC[C@H]([C@H](N)CF)CC3)ccc2[nH]1)C(C)C (stereo partly shown) [Example 125]		5.6%	
CC(C)OC(=O)OC(C)OC(=O)c1cc2cc(NC(=O)[C@@H]3[C@H](C4CCCCC4)CCN3C(=O)[C@H]3CC[C@H]([C@H](N)CF)CC3)ccc2[nH]1 (stereo partly shown) [Example 128]		47%	
N[C@H](CF)[C@H]1CC[C@H](C(=O)N2CC[C@@H](C3CCCCC3)[C@H]2C(=O)Nc2ccc3oc(C(=O)OCC4CCOCC4)cc3c2)CC1 [Example 141]		17%	
COc1ccc([C@H]2CCN(C(=O)[C@H]3CC[C@H]([C@H](N)CF)CC3)[C@@H]2C(=O)Nc2ccc3[nH]c(C(=O)O)cc3c2)cc1 [Example 170]	76 nM		
Cc1oc(=O)oc1COC(=O)c1cc2cc(NC(=O)[C@@H]3[C@@H](c4ccccc4)CCN3C(=O)[C@H]3CC[C@H]([C@H](N)CF)CC3)ccc2[nH]1 [Example 171]		18%	
N[C@H](CF)[C@H]1CC[C@H](C(=O)N2CC[C@H](c3ccc(F)cc3)[C@H]2C(=O)Nc2ccc3[nH]c(C(=O)O)cc3c2)CC1 [Example 178]	33 nM		
N[C@H](CF)[C@H]1CC[C@H](C(=O)N2CC[C@@H](c3ccccc3)[C@H]2C(=O)Nc2ccc3[nH]c(C(=O)O)c(Cl)c3c2)CC1 [Example 186]	60 nM		
COC1CCC([C@@H]2CCN(C(=O)[C@H]3CC[C@H]([C@H](N)CF)CC3)[C@@H]2C(=O)Nc2ccc3oc(C(=O)OCC(C)C)cc3c2)CC1 (stereo partly shown) [Example 201]		45%	
CC(C)C(=O)O[C@@H](C)OC(=O)N[C@H](CF)[C@H]1CC[C@H](C(=O)N2CC[C@@H](C3CCCCC3)[C@H]2C(=O)Nc2ccc(-c3nnn[nH]3)cc2)CC1 [Example 205, (1R)-1-({[(1S)-1-(trans-4-{[(2S,3S)-3-Cyclohexyl-2-{[4-(1H-tetrazol-5-yl)phenyl]carbamoyl}pyrrolidin-1-yl]carbonyl}cyclohexyl)-2-fluoroethyl]carbamoyl}oxy)ethyl 2-methylpropanoate]		3.5%	Residual percentage (%) Human plasma [5]: 60%
